Drawing on ChEMBL document CHEMBL5291721, “A preclinical secondary pharmacology resource illuminates target-adverse drug reaction associations of marketed drugs” (Nat Commun, 2023), this text covers AC50 for six molecules.

Where only a bound is given, the exact number is not on record here.

Experiment [1] addresses Prostaglandin G/H synthase 1 (Homo sapiens, UniProt P23219). Format: functional.
For experiment [2], the target named is Beta-2 adrenergic receptor (Homo sapiens, UniProt P07550).
Experiment [3] has as its target Histamine H3 receptor (Homo sapiens, UniProt Q9Y5N1).
The target of experiment [4] is T1, Amine oxidase [flavin-containing] A (Homo sapiens, UniProt P21397).
T1 sequence (P21397 whole entry): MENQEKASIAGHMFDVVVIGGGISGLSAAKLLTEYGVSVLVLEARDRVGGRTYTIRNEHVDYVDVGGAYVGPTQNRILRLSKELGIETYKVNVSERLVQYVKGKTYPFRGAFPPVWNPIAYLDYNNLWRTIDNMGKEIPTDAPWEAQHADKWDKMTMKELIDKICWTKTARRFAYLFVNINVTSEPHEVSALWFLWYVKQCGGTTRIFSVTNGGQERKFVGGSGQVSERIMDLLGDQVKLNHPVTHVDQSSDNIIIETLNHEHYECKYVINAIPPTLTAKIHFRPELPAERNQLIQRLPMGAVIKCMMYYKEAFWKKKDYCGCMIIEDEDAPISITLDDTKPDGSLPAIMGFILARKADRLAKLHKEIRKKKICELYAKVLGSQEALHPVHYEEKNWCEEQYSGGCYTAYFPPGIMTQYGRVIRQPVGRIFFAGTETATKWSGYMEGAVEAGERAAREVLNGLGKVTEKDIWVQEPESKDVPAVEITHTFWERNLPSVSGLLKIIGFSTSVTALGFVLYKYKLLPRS
Format: functional.

The target in experiment [5] is Histamine H2 receptor (Homo sapiens, UniProt P25021). Format: functional, cell-based.
Sequence of Histamine H2 receptor (P25021 whole entry): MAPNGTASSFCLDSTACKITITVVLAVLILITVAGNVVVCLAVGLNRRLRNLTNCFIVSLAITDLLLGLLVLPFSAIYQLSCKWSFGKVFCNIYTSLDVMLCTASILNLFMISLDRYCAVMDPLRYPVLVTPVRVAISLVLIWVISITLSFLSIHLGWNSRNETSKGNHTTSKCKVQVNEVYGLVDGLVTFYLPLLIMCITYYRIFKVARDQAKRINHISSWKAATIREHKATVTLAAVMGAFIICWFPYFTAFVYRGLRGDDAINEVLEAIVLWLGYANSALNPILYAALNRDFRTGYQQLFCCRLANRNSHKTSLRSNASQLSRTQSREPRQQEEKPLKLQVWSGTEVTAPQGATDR
In experiment [6] the target is Sodium-dependent serotonin transporter (Homo sapiens, UniProt P31645).
Sequence of Sodium-dependent serotonin transporter (P31645 whole entry): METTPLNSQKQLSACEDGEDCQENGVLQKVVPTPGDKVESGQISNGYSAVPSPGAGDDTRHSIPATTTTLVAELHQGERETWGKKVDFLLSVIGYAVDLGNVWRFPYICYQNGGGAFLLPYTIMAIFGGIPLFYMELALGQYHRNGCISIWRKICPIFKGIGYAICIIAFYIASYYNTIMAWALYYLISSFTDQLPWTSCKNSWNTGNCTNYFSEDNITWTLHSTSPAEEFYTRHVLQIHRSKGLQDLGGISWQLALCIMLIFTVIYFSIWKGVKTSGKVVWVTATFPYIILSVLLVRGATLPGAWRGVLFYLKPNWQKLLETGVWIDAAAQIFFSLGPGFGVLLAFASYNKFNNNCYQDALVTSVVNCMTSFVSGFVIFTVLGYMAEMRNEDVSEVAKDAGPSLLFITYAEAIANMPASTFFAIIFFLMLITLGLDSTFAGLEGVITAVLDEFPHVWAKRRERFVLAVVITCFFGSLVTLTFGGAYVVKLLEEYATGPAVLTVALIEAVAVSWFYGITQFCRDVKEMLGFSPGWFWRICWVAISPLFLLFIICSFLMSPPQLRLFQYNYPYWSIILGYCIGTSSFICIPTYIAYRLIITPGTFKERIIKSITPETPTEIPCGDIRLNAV
For experiment [7], the target named is T2, Alpha-1A adrenergic receptor (Homo sapiens, UniProt P35348).
T2 sequence (P35348 whole entry): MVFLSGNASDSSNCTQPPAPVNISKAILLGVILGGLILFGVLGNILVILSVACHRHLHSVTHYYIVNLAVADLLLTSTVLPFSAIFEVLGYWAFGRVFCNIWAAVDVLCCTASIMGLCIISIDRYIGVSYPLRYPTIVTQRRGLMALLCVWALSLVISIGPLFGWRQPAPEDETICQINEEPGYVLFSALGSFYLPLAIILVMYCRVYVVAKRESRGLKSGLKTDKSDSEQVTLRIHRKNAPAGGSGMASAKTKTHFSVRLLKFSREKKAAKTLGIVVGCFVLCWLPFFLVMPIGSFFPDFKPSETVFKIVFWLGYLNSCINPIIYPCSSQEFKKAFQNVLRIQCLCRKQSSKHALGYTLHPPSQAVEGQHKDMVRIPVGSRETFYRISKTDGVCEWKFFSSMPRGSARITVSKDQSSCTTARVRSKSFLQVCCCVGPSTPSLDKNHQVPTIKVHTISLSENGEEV
It counts as functional, cell-based.

Experiment [8] has as its target T3, Neuropeptide Y receptor type 1 (Homo sapiens, UniProt P25929).
T3 sequence (P25929 whole entry): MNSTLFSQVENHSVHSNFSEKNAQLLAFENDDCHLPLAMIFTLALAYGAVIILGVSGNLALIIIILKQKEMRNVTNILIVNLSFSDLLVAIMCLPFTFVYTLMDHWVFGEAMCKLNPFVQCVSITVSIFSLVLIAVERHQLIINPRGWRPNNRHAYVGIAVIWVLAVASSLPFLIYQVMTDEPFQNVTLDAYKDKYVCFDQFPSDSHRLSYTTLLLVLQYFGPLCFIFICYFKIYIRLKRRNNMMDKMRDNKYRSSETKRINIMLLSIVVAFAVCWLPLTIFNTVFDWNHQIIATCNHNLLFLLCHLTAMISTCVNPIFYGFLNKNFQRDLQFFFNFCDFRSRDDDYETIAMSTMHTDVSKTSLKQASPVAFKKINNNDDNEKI

The target in experiment [9] is T4, Estrogen receptor (Homo sapiens, UniProt P03372).
T4 sequence (P03372 whole entry): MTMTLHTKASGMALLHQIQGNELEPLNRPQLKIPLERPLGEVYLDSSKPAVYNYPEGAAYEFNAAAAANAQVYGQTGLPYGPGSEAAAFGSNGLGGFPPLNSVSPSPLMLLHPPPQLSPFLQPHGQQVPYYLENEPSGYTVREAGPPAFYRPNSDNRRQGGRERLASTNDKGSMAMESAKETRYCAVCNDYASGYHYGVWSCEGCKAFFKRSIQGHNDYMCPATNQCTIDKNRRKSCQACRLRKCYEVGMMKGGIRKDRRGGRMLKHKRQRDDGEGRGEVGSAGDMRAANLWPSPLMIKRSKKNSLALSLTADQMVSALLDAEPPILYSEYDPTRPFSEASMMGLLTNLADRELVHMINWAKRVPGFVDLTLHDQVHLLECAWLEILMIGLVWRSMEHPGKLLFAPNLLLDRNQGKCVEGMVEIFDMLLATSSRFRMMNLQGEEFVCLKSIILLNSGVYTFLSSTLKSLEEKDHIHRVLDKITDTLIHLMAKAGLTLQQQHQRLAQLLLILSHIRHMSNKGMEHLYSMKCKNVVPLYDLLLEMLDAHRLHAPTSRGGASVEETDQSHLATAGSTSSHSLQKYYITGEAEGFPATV

In experiment [10] the target is Vascular endothelial growth factor receptor 2 (Homo sapiens, UniProt P35968). It counts as functional.
Sequence of Vascular endothelial growth factor receptor 2 (P35968 whole entry): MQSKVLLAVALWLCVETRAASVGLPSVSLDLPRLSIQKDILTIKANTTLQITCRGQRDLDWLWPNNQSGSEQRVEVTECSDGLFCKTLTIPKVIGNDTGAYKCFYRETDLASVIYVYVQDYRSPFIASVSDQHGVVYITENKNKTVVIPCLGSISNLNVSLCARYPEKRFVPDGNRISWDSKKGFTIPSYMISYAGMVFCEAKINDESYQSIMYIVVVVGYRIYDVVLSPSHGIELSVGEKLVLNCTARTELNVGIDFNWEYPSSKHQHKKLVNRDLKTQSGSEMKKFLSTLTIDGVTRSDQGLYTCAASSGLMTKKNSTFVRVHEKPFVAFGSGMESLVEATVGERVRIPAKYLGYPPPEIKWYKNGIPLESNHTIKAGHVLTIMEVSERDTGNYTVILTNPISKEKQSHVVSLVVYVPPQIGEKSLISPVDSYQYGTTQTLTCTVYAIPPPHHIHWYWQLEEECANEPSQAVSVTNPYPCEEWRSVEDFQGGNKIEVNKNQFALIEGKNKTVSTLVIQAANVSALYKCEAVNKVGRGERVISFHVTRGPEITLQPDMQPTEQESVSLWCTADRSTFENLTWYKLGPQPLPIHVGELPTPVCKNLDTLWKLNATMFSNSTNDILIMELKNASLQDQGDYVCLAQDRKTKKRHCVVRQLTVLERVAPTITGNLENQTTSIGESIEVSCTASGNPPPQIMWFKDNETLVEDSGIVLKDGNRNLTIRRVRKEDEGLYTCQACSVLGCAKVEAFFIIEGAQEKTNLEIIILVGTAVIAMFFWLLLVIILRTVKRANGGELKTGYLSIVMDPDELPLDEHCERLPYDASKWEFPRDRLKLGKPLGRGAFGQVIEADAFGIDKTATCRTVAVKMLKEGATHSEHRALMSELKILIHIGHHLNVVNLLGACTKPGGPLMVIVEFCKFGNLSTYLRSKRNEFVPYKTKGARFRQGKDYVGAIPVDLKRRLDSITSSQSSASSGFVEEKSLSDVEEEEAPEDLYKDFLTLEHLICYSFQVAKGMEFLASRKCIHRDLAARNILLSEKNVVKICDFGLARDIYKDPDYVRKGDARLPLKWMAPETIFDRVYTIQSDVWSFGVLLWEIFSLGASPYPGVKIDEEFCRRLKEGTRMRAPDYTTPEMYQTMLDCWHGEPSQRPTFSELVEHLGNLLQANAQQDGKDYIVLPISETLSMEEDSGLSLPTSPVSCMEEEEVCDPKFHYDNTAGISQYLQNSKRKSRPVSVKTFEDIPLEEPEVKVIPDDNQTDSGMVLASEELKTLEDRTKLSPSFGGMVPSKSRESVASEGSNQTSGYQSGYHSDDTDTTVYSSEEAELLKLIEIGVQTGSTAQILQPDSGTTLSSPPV
The target in experiment [11] is cGMP-inhibited 3',5'-cyclic phosphodiesterase 3A (Homo sapiens, UniProt Q14432). Format: functional.
Sequence of cGMP-inhibited 3',5'-cyclic phosphodiesterase 3A (Q14432 whole entry): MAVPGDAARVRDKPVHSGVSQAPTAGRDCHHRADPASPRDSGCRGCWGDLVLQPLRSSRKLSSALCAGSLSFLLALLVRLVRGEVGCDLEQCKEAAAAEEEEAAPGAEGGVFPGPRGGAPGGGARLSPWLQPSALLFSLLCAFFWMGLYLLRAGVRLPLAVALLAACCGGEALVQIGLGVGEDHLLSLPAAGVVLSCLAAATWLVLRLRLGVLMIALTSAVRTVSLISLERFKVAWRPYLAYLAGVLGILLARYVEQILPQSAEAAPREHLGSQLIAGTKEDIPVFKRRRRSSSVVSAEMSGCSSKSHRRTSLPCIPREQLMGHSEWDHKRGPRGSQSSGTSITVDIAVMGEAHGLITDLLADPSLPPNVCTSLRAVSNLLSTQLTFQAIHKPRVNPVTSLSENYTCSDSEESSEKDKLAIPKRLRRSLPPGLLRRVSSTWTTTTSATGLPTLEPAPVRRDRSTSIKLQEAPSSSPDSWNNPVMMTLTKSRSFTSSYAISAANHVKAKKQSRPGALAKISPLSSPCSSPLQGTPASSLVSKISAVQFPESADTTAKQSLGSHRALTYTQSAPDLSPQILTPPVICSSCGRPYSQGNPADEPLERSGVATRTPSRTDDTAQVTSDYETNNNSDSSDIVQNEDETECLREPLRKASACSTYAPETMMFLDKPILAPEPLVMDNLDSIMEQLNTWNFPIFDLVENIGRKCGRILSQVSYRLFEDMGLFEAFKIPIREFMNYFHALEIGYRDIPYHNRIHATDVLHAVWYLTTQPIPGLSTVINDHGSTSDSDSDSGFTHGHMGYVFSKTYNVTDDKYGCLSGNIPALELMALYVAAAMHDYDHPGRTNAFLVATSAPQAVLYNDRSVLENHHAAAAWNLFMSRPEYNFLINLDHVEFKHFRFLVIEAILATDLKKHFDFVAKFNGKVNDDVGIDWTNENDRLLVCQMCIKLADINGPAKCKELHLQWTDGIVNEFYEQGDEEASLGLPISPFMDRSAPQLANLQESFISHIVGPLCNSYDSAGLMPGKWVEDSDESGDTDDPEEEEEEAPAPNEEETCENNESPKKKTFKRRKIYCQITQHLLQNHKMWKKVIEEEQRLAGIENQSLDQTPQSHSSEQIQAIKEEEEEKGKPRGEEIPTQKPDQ
Note: assay procedure not described here.

Sequence of Histamine H3 receptor (Q9Y5N1 whole entry): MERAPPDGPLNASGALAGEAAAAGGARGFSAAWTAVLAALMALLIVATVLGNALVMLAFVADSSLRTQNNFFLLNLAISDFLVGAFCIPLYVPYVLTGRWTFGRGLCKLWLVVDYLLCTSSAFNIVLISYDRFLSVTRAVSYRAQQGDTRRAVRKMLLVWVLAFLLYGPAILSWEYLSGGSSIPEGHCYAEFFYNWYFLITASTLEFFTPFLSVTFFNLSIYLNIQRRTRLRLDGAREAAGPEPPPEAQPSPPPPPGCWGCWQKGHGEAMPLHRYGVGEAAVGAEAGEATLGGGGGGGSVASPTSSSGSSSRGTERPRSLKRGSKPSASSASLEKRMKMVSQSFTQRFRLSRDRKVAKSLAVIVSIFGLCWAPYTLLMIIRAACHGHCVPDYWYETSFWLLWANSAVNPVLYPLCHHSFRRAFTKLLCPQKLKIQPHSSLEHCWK
Sequence of Prostaglandin G/H synthase 1 (P23219 whole entry): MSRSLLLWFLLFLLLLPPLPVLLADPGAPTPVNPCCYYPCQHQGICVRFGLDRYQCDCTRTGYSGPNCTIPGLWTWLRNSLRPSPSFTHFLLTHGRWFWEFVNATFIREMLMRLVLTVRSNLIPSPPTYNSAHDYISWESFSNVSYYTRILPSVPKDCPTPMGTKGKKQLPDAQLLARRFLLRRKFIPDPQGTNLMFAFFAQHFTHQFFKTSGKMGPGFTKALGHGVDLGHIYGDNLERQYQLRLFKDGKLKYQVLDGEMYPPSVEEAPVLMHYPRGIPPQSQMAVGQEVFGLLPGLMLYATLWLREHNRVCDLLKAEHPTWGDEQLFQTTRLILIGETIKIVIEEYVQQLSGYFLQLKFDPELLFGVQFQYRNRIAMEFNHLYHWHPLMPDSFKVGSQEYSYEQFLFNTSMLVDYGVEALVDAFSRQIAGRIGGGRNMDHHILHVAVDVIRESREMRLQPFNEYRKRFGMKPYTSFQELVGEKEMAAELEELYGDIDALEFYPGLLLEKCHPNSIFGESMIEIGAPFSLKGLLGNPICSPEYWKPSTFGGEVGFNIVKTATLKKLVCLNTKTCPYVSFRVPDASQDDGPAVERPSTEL
Sequence of Beta-2 adrenergic receptor (P07550 whole entry): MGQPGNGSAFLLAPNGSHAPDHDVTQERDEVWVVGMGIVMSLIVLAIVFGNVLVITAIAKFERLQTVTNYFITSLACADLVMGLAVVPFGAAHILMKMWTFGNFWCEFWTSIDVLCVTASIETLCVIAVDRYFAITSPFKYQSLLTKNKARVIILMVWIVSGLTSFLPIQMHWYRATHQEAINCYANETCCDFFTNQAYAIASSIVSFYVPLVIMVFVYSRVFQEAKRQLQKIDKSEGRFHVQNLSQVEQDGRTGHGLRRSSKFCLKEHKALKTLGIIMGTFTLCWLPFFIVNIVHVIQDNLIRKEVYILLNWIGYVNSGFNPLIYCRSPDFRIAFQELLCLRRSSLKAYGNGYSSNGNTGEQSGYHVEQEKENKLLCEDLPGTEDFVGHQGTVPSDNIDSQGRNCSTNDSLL

As a reminder, the AC50 is the concentration giving half of the maximal activity seen. Low values mean greater potency, high ones weaker potency. For `CN(C)CCN(Cc1ccccc1)c1ccccn1` [TRIPELENNAMINE], the AC50 was greater than 30 µM in [1]; greater than 30 µM in [2]; greater than 30 µM in experiment [3]; greater than 30 µM in experiment [4]; greater than 10 µM in experiment [5]; 0.395 µM in [6]. For the same molecule, the AC50 in [7] is greater than 30 µM; in experiment [8] it was greater than 10 µM; in [9], greater than 30 µM; in experiment [10], greater than 30 µM; in [11] it was greater than 30 µM.

As to `CN1CCC(N(Cc2cccs2)c2ccccc2)CC1` [THENALIDINE], the AC50 is greater than 30 µM in [1]; greater than 30 µM in experiment [3]; greater than 30 µM in [4]; 18 µM in experiment [6]; greater than 30 µM in experiment [7]; greater than 30 µM in experiment [9]. The AC50 in [10] and in [11] was greater than 30 µM in each case.

For `CC(C)NC[C@H](O)COc1ccc(O)cc1` [PRENALTEROL], the AC50 in [1] is 5.86 µM; in experiment [3] it was greater than 30 µM; in experiment [4], greater than 30 µM; in experiment [6], greater than 30 µM; in experiment [7], greater than 30 µM; in experiment [9], greater than 30 µM. Besides, the AC50 in [10] and in experiment [11] was greater than 30 µM in each case.

As for `Cc1cc(C)cc(OCC2CNC(=O)O2)c1` (stereo unspecified) [METAXALONE], the AC50 is greater than 30 µM in [1]; greater than 30 µM in [3]; 15.4 µM in experiment [4]; greater than 30 µM in experiment [6]; greater than 30 µM in experiment [7]; greater than 30 µM in experiment [9]. Besides, the AC50 in [10] and in experiment [11] was greater than 30 µM throughout.

On to `Cc1ccc(C(C)C)c(O)c1` [THYMOL], for which the AC50 in experiment [1] is greater than 3 µM; in [3] it was greater than 30 µM; in [4] it was greater than 30 µM; in experiment [6], greater than 30 µM; in [7], greater than 30 µM; in experiment [9], greater than 30 µM. Besides, the AC50 in experiment [10] and in experiment [11] was greater than 30 µM each time.

Consider `C[C@]12CC[C@@H]3c4ccc(OC(=O)N(CCCl)CCCl)cc4CC[C@H]3[C@@H]1CC[C@@H]2OP(=O)(O)O` [ESTRAMUSTINE PHOSPHATE], for which the AC50 in experiment [1] is greater than 30 µM; in experiment [3], greater than 30 µM; in [4], greater than 30 µM; in experiment [6] it was greater than 30 µM; in experiment [7], greater than 30 µM; in experiment [9], 2.03 µM. The AC50 in experiment [10] was 19.5 µM; in [11], greater than 30 µM.
